Experimental data published in US20140155397A1, “EMT SIGNATURES AND PREDICTIVE MARKERS AND METHOD OF USING THE SAME” (Board of Regents, priority 2011, published 2014).

Tests used:
Calu-1 = experiment: Proliferation, CellTiter-Glo Luminescent Cell Viability; type: cell-based; settings: single agent
Description: (§1) Average values were used for analysis as described. […] Chou T. C., et al., Quantitative Analysis of Dose-Effect Relationships: The Combined Effects of Multiple Drugs or Enzyme Inhibitors. Adv Enzyme Regul.

A549 = experiment: as above; type: cell-based; settings: single agent
Description: as §1

H157 = experiment: as above; type: cell-based; settings: single agent
Description: as §1

H460 = experiment: as above; type: cell-based; settings: single agent
Description: as §1

H2882 = experiment: as above; type: cell-based; settings: single agent
Description: as §1

H1299 = experiment: as above; type: cell-based; settings: single agent
Description: as §1

Tyro3 = molecular target: T1, Tyro3 (Homo sapiens, UniProt Q06418); experiment: Protein kinase panel; type: biochemical
T1 sequence (Q06418 41-890): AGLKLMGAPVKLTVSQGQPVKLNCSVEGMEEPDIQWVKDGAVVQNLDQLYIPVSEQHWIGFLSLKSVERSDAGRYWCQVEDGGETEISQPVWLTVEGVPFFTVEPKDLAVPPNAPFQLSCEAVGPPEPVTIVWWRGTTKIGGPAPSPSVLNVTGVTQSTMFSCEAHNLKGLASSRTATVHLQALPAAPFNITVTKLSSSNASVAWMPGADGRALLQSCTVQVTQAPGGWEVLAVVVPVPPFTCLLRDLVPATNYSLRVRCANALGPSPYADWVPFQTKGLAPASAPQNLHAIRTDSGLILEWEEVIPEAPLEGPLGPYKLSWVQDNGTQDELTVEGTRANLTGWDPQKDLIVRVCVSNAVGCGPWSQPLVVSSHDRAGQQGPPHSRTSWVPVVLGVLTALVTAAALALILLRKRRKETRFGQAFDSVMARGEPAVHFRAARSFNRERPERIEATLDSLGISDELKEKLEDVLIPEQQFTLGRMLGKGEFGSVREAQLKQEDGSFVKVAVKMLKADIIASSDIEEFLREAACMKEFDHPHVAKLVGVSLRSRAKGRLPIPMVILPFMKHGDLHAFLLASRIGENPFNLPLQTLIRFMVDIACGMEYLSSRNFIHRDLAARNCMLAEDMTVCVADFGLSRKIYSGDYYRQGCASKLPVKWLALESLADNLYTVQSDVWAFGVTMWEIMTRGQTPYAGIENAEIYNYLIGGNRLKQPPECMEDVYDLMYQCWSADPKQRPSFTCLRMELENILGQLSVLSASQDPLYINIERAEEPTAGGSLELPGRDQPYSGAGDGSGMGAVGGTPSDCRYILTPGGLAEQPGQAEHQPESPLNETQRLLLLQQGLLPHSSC
Description: (§2) Purified recombinant AXL kinase was used to screen a library of structures with appropriate drug-like scaffolds to identify potential inhibitors. Hits from the screen were confirmed and r analyzed by selection criteria including Lipinski rules. One pyrrolopyrimidine-based compound was selected for structure-activity relationship efforts. Optimization of this scaffold and subsequent evaluation led to the generation of compound SG1-7079 as the lead candidate inhibitor (FIG. 10). […] SGI-7079 was screened against a panel of protein kinases to determine both selectivity and biochemical potency.

MER = molecular target: T2, MER (Homo sapiens, UniProt Q12866); experiment: Protein kinase panel; type: biochemical
T2 sequence (Q12866 21-999): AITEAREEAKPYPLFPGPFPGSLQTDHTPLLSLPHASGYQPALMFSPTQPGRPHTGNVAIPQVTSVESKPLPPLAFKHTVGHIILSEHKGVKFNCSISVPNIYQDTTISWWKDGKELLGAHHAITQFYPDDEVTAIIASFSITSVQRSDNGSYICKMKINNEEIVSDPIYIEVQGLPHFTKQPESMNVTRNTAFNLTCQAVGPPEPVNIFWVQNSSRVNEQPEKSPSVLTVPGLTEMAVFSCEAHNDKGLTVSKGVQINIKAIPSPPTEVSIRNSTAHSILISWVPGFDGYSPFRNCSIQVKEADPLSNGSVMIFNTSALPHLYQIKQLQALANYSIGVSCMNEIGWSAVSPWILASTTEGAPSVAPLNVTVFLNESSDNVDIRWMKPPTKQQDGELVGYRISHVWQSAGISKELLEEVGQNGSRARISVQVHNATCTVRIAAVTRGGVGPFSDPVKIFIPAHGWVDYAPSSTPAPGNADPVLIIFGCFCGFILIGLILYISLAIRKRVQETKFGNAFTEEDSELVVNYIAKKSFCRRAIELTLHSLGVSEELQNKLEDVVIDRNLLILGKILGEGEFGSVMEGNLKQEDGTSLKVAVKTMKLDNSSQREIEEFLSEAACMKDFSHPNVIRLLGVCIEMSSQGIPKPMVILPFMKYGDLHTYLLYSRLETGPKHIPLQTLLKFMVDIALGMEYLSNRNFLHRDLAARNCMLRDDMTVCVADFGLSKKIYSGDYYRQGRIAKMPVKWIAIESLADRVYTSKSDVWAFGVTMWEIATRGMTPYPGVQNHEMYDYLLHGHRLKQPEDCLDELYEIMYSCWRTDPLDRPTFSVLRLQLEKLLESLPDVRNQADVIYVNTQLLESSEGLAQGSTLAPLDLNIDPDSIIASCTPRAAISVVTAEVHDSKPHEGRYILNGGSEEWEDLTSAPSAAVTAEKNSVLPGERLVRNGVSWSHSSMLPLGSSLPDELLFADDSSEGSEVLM
Description: as §2

Jak2 = Jak2 (Homo sapiens, UniProt O60674); experiment: Protein kinase panel; type: biochemical
Description: as §2

Syk = Syk (Homo sapiens, UniProt P43405); experiment: Protein kinase panel; type: biochemical
Description: as §2

Jak2, sequence (O60674 whole entry, species assumed): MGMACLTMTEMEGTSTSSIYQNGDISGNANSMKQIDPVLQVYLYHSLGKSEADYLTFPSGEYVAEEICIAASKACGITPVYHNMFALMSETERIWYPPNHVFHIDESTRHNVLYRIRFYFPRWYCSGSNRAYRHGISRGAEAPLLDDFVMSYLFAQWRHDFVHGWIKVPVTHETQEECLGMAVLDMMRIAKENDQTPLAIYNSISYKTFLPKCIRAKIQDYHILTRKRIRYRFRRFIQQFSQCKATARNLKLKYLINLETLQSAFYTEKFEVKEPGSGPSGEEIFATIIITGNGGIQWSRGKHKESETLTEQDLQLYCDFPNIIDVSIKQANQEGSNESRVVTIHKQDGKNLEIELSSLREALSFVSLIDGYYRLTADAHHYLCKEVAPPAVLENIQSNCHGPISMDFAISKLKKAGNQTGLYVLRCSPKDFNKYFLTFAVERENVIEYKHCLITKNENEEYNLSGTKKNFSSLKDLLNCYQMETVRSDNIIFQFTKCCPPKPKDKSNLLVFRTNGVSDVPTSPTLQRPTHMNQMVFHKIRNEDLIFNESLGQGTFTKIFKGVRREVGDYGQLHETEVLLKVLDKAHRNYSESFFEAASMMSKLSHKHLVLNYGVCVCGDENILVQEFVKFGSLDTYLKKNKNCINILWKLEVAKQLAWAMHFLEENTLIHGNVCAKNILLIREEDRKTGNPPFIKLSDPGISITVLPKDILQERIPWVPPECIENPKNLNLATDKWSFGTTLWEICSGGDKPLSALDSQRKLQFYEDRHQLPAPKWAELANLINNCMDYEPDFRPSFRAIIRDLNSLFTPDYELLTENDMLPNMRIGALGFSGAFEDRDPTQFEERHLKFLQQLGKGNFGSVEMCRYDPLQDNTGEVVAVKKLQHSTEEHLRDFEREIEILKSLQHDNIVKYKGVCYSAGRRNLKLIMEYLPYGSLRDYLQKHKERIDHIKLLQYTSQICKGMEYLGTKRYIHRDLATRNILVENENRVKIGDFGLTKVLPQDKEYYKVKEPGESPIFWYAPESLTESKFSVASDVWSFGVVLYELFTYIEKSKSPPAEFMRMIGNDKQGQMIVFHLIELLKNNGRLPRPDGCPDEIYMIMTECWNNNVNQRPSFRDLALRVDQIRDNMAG

Cc1c[nH]c2nc(Nc3ccc(N4CCN(C)CC4)c(F)c3)nc(-c3cccc(CC#N)c3)c12 [SGI-7079]
IC50 (Calu-1): 2440 nM | IC50 (A549): 920 nM | IC50 (H157): 740 nM | IC50 (H460): 2010 nM | IC50 (H2882): 4290 nM | IC50 (H1299): 1740 nM | Inhibition of Tyro3 (Tyro3): similarly as AXL | Inhibition of MER (MER): similarly as AXL | Inhibition of Jak2 (Jak2): potent, low nM inhibition | Inhibition of Syk (Syk): potent, low nM inhibition
